A short description of data set [1]: Buffering capacity in a cell-free system (addition of 1.25 M HCl). The data set is classed as physicochemical. As to the method:
By contrast, the pH of HLB solution (initial pH 7.7) drops below 7.2 with the addition of about 0.01 ml of a 1.25 M HCl solution.
When the solution of the present invention is used as a blood substitute at hypothermic temperatures, medical grade sterile NaHCO3 is added to the heat sterilized solution (HL solution). The solution containing NaHCO3 is called HLB solution. Under in vivo conditions with oxygenation, HLB solution is shown to maintain pH above 7.3 in temperatures ranging from 1.6-36.1° C. (Tables 2 and 3).

The conditions of data set [2]: cited from earlier work.

With `NCC(CO)(CO)CO` [25 mM TRIS, Tris[Hydroxymethyl]methyl aminomethane], in data set [1] (cell-free solution before HCl addition), the “initial pH” value is on record as “about 7.7”. Besides, the “volume of 1.25 M HCl solution added with pH maintained above 7.2” value in data set [1] (cell-free, initial pH about 7.7) is on record as “up to 0.12 mls”.
As to hydroxyethyl starch, in data set [2] (500 ml intravenous dose of 6% solution, after 24 hours), the “share of dose eliminated in the urine” value was “approximately 33%”. Besides, the “share of dose remaining circulating” value in data set [2] (after 1 week) is reported as “Approximately 10%”.

Source of the values: patent US6410218B1, “Plasma-like solution” (BioTime, Inc., priority 1993, dated 2002).
